Source: PMC12040169 (PLOS Biology, 2025)

Experiment: in vitro
Settings: human, hela cells, % viability

| Structure (SMILES) | viability at 28.5 h, 10 µM [%] |
| --- | --- |
| OC(CNCCc1ccccc1)CN1c2ccccc2Sc2ccccc21 (stereo not drawn) [CBK264017G] | 97.6 |
| O=C(Cn1c(=O)n(Cc2ccco2)c2ncccc21)N1CCCCC1 [CBK283862] | 89.2 |
| COc1cc(-c2nccnc2NCCc2ccccn2)cc(OC)c1OC [CBK037307] | 91.4 |
| CN(C(=O)CN)c1nc2c(s1)CC(c1ccccc1)CC2 (stereo not drawn) [CBK304298C] | 74.1 |
| CC12CCC(CC1C(=O)NC1CC1)[C@]1(C2)NC(=O)c2ccccc2N1 (stereo partly drawn) [CBK284445] | 92.2 |
| Clc1cc(-c2cnc3ccccc3n2)c(Cl)s1 [CBK006186] | 85.4 |
| Cc1cc(-c2cn(C)nc2C2CCCCN2C(=O)C2CCCC2)on1 (stereo not drawn) [CBK283404] | 96.9 |
| CSc1cc(-c2ccc(Cl)cc2)c(C(=O)O)s1 [CBK126740] | 80.3 |
| CS(=O)(=O)N1CCCc2cc(-c3csc(N4CCOCC4)n3)ccc21 [CBK305022] | 84.8 |
| COC(=O)c1c(NC(=O)C(=O)NCc2ccccn2)sc2c1CCC2 [CBK269431] | 94.6 |
| Oc1ccc(/C=N/c2nnn[nH]2)cc1 [CBK260976] | 101 |
| CCN(CC)C(=O)c1ccc(NS(=O)(=O)c2cc(F)c(Br)cc2F)cc1 [CBK034388] | 90.1 |
| CC(C)c1ccc(/C=C/C(=O)NCC2COc3ccccc3O2)cc1 (stereo not drawn) [CBK149619] | 120 |
| CC(=O)Nc1cccc(C(=O)OCC(=O)N2CCCCC2C)c1 (stereo not drawn) [CBK305868] | 76.6 |
| COc1ccc(S(=O)(=O)Nc2nccnc2-c2ccc3[nH]ccc3c2)cc1 [CBK050805] | 91.6 |
| Cc1ccc(C(=O)NC2CCCCCC2)cc1C [CBK083665] | 86 |
| Nc1nc(NCc2ccccc2)nc(-c2cc(Cl)ccc2O)n1 [CBK074526] | 102 |
| O=C(Nc1ccc(O)cc1)c1ccc(N2C(=O)c3cccc([N+](=O)[O-])c3C2=O)cc1 [CBK262600] | 89.8 |
| OCC1OC(n2cnc3c(S)ncnc32)C(O)C1O (stereo not drawn) [CBK012260] | 64.5 |
| CCOC(=O)c1ccc(-c2nccnc2Oc2cccc(OC)c2)cc1 [CBK107115] | 81 |
| CCC1CCCCN1C(=O)c1ccc(C(C)(C)C)cc1 (stereo not drawn) [CBK076644] | 103 |
| O=C1CCC(=O)N1CCOc1nccnc1N1CCN(CCc2ccccn2)CC1 [CBK084309] | 109 |

| Structure (SMILES) | viability at 28.5 h, 10 µM [%] |
| --- | --- |
| CC(C)c1ccc(-c2cncc(NCCCN3CCOCC3)n2)cc1 [CBK065196] | 97.7 |
| Cc1cc(C)cc(NC(=O)NCCc2cccs2)c1 [CBK044998] | 93.2 |
| O=C(CSCc1ccccc1Cl)NNC(=O)c1cccnc1 [CBK267826] | 113 |
| CCOC(=O)c1sc(NS(=O)(=O)c2ccc(C(=O)O)cc2)cc1C [CBK296623] | 100 |
| O=CN1CCN(S(=O)(=O)c2ccc3c(c2)Cc2cc(S(=O)(=O)N4CCN(C=O)CC4)ccc2-3)CC1 [CBK264351] | 98.8 |
| Cc1nc(-c2ccccc2)sc1CNC(=O)COc1ccc(F)cc1 [CBK092350] | 86.3 |
| CC(C)N1CCN(Cc2c(C(F)(F)F)[nH]c3ncccc23)CC1 [CBK285354] | 88.3 |
| CC(CCN1CCN(Cc2ccccc2)CC1)c1ccccc1 (stereo not drawn) [CBK261902] | 89.1 |
| CCNc1nc(Sc2ccc(Cl)cc2)cc(C(F)(F)F)n1 [CBK003349] | 79.4 |
| CN1CCCCC/C1=N/C(=S)CN1CCCC1=S [CBK009052] | 96.3 |
| Cc1ccc(-c2nc(C3CCCN(C(=O)NC4CCCCC4)C3)n3ccccc23)cc1 (stereo not drawn) [CBK047241] | 94.4 |
| CC(=O)N1CCC(c2cc(-c3cccc(F)c3)n(C)n2)CC1 [CBK282097] | 101 |
| Cc1csc(C(Cc2ccsc2)NC(=O)C2CCOC2)n1 (stereo not drawn) [CBK285150] | 94.9 |
| O=C(O)c1ccc(N2C(=O)C(=Cc3c4ccccc4cc4ccccc34)SC2=S)cc1 [CBK296101] | 85.9 |
| Clc1nc2ccccc2nc1OCCOc1ccccc1 [CBK113367] | 108 |
| O=C1NCCc2c1[nH]c1ccc(Cl)cc21 [CBK015755] | 38.9 |
| O=C(Cn1ccc2ccnc(-c3cccs3)c21)N1CCNCC1 [CBK284733] | 90.9 |
| CN(Cc1ccccc1)C(=O)c1ccccc1NC(=O)c1ccccc1 [CBK267818] | 107 |
| COc1cc(S(=O)(=O)NC2CC(C)(C)NC(C)(C)C2)ccc1F [CBK266561] | 92 |
| Cc1cc(Cl)ccc1NC(=O)COCC(=O)O [CBK057723] | 104 |
| CC1(CNC(=O)c2cc(-c3ccc(F)cc3)no2)COC1 [CBK281757] | 84.2 |
| CC(C)C(NS(=O)(=O)c1ccc([N+](=O)[O-])cc1)C(C)C [CBK267656] | 94.8 |

| Structure (SMILES) | viability at 28.5 h, 10 µM [%] |
| --- | --- |
| Cn1cc(-c2nc(C3COCCN3Cc3c(F)cccc3Cl)no2)cn1 (stereo not drawn) [CBK305441] | 79.4 |
| O=C(O)C1(Oc2ccc3ccccc3c2)CCN(CC2CCOC2)CC1 (stereo not drawn) [CBK306767] | 91.4 |
| CN1CCC(Oc2ncccc2OCc2ccccc2)CC1 [CBK036311] | 97.4 |
| O=C1CCC(C(=O)O)(c2ccccc2)N1c1ccccc1 (stereo not drawn) [CBK116358] | 94.8 |
| Cc1cccn2cc(CCNC(=O)N[C@H](C)C(=O)N(C)C)nc12 [CBK304617] | 110 |
| NS(=O)(=O)c1cc(C(=O)O)ccc1F [CBK113180] | 81.1 |
| CC(C)N(C)CC(=O)N(C)c1nc2c(s1)CC(c1ccccc1)CC2 (stereo not drawn) [CBK305535] | 93.7 |
| O=C1/C(=C/NCc2cccnc2)C(c2ccccc2)=NN1c1ccc([N+](=O)[O-])cc1 [CBK262911] | 97.6 |
| CCOC(=O)c1cn(CC)c2cc(N3CCSCC3)c(F)cc2c1=O [CBK307143] | 89.8 |
| CCOC(=O)N/N=C(/C)c1ccc(Br)s1 [CBK019480] | 93.5 |
| CC(C)(C)OC(=O)NCc1ccc(CNCc2ccc(-c3ccccc3)cc2)cc1 [CBK056706] | 96.8 |
| O=C(NC(=S)Nn1cnnc1)c1ccccc1 [CBK028188] | 125 |
| O=C1CCC(=O)N1CCOc1nccnc1N1CCN(Cc2ccccc2)CC1 [CBK084288] | 87.9 |
| O=[N+]([O-])c1cccc(S(=O)(=O)NCCOc2cccc3cccnc23)c1 [CBK268489] | 98.6 |
| Cc1[nH]cnc1CN1CCc2c(c3ccccc3n2C)C1=O [CBK002383C] | 63.5 |
| O=C(O)C=Cc1cn(-c2ccccc2)nc1-c1ccc(-c2ccc([N+](=O)[O-])cc2)o1 [CBK296088] | 105 |
| Cc1ccn2c(-c3csc(Nc4ccc(C(=O)O)cc4)n3)c(C)nc2c1 [CBK263283B] | 97.5 |
| Cc1noc(C)c1C(=O)N1CCCCCC1c1cnn(C)c1 (stereo not drawn) [CBK284974] | 98.8 |
| CCCn1ncc(C(=O)NC(CC)c2cn3cccnc3n2)c1C (stereo not drawn) [CBK307640] | 92.9 |
| CC(C)(C)NC(=O)Cn1cnc2c(cnn2-c2ccccc2)c1=O [CBK269586] | 91.6 |
| O=C(NCc1ccc(F)cc1)NC(=O)C1CCN(CCc2ccc(Br)cc2)CC1 [CBK034836] | 95.2 |

Same assay, conditions: human, hela cells, % viability, bulk resorufin, single well

| Structure (SMILES) | viability at 28.5 h, 10 µM [%] |
| --- | --- |
| CCN(CC)CCN(C)Cc1ccc2ccc3cccc4ccc1c2c34 [CBK261859] | 103 |
